In patent US20260364078A1, “PURINE NUCLEOSIDE PHOSPHORYLASE INHIBITORS FOR THE TREATMENT OF METABOLIC SYNDROME AND ASSOCIATED CONDITIONS” (METASHAPE PHARMA AG, priority 2022, published 2026):

Assays:
[1] = Polymorph form conversion / solid-state stability (XRPD, VT-XRPD); assay type: physicochemical
Description: To confirm stability and suitability of Ulodesine hemi-glutarate Type A, a polymorph screening was conducted to search for other potential crystal forms and identify the most suitable form to confirm the previous findings.
Using glutarate Type A as starting material, a polymorph screening was conducted under 100 conditions through methods of anti-solvent addition, solid vapor diffusion, liquid vapor diffusion, slow evaporation, polymer-induced crystallization, temperature cycling, slurry at room temperature (RT)/50 °C and slow cooling.
X-ray powder diffraction data at variable temperature was collected at on a Malvern Panalytical Empyrean diffractometer. Flat a few milligrams of sample on a sample holder and compact it by a glass slide with protection of a piece of weighting paper. An X-ray generator of 1800 W was employed at 45 kV and 40 mA and was equipped with an X-ray tube of Cu (Kα), with the Kα2/Kα1 intensity ratio of 0.50 (1.54439 Å/1.5406 Å). Data were collected from 3° to […] (2θ) at a step size of 0.026° (2θ) with time per step of 49.7 s.
Glutarate Type B (E0007-A01-06) was only observed by heating glutarate Type A to 130 °C using X-ray powder diffractometer at variable temperature mode (VT-XRPD).
Based on the characterization results, glutarate Type C was speculated as a channel hydrate (the water molecules of a channel hydrate lie next to other water molecules of adjoining unit cell, forming channels through the crystals).
Type C was re-prepared at 100 mg in triplicate via temperature cycling slurry in anisole/MeOH (1:2, v/v).

DIO mouse model [2] = experiment: Example 3: liver parameters in DIO mouse model; assay type: in vivo, C57/BL6J mice; details: 2 mg/kg p.o., 3 days a week, 8 weeks
Text: The aim of this study is to determine the effect of low and intermittent dosing of ulodesine hemi glutarate on the liver parameters: liver weight, total cholesterol, triglycerides, AST and ALT. The study assessed ulodesine hemi glutarate efficacy on the listed parameters in the DIO mouse model of obesity and metabolic dysfunction.
Method: C57/BL6J mice were fed obesogenic diet D12492 (60 kcal % fat) from age 6 weeks. Eighteen weeks old mice (approximately 40 g) were either treated with vehicle (control) or ulodesine hemi glutarate at 2 mg/kg for 3 days a week (days 1, 2 and 3) given orally for 8 weeks. At the end of eight weeks, the liver was removed and the following parameters were assessed: total cholesterol, triglycerides, AST and ALT.

DIO mouse model [3] = experiment: Example 2: low and intermittent dosing in DIO mouse model; assay type: in vivo, C57/BL6J mice; details: 2 mg/kg p.o., 3 days a week, vs control
Text: The aim of this study is to determine the effect of a low and intermittent dosing regime of ulodesine hemi glutarate on the following parameters: weight gain, food intake, fasting blood glucose concentration, serum insulin, serum cholesterol, plasma liver enzymes aspartate aminotransferase (AST) and alanine transaminase (ALT), inguinal white adipose tissue (iWAT), BAT; inosine in plasma and NAD+ in whole blood, and expression of lipogenesis (fatty acid synthesis) markers in iWAT and thermogenic markers in BAT. The study will assess ulodesine hemi glutarate efficacy on the listed parameters in the DIO mouse model of obesity and metabolic dysfunction.
Method: C57/BL6J mice were fed obesogenic diet D12492 (60 kcal % fat) from age 6 weeks. Nineteen week old mice (approximately 50 g) were either treated with vehicle (control) or ulodesine hemi glutarate at 2 mg/kg for 3 days a week (days 1, 2 and 3), given orally, over a 28 day period. On day minus 2 and on day 28, animals were fasted for 6 hr (only food withdrawn) and blood was collected for both blood glucose and cholesterol. On day 28 plasma liver enzymes (AST and ALT) and insulin were determined and additional plasma and whole blood was frozen and used for inosine and NAD+ measurement. BAT and iWAT was collected at the end of the study, weighed and quantitative PCR was performed for the lipogenesis markers Stearoyl CoA desaturase 1 (SCD-1) and fatty acid synthetase (FAS) and the thermogenesis marker uncoupling protein 1 (UCP-1). Inosine and NAD+ levels in stored plasma and whole blood respectively were determined by LC/MS/MS.

O=c1[nH]cnc2c(CN3C[C@H](CO)[C@@H](O)C3)c[nH]c12 [Glutarate Type B]
form conversion on cooling back to RT ([1]; after heating to 130 °C, cooled to RT): quickly converted to glutarate Type A | solid form stability ([1]; ambient condition): meta-stable form at ambient condition

O=c1[nH]cnc2c(CN3C[C@H](CO)[C@@H](O)C3)c[nH]c12 [Glutarate Type C]
form change after heating to 110 °C ([1]; 110 °C): no form change | form change after drying ([1]; RT overnight): no form change | Form change after heating ([1]; after heating): No | stability compared with glutarate Type A ([1]; drying under ambient condition): lower stability compared with glutarate Type A | form conversion after drying under ambient condition ([1]; wet cakes from screening, ~25 °C/30% RT): (partially) converted to glutarate Type A | form conversion after drying under ambient condition ([1]; wet cakes, ~6 h (~20 °C/32% RH)): converted to glutarate Type A

O=c1[nH]cnc2c(CN3C[C@H](CO)[C@@H](O)C3)c[nH]c12 [ulodesine]
liver ALT (DIO mouse model [2]): decreases in triglycerides and ALT with treatment they did not achieve statistical significance | liver AST (DIO mouse model [2]): significant decrease | liver total cholesterol (TC) (DIO mouse model [2]): significant decrease | liver triglycerides (DIO mouse model [2]): decreases in triglycerides and ALT with treatment they did not achieve statistical significance | blood glucose (DIO mouse model [3]; 28 days): decreases | iWAT/Body weight % (DIO mouse model [3]; 28 days): significant decrease | plasma cholesterol (DIO mouse model [3]; 28 days): decreases | insulin levels (DIO mouse model [3]; day 28): decreases | plasma ALT (DIO mouse model [3]; day 28): decreases | plasma AST (DIO mouse model [3]; day 28): decreases
